From patent US20050221411A1, “Interaction of NMDA receptor with the protein tyrosine phosphatase step in psychotic disorders” (AGY Therapeutics, Inc., priority 2003, published 2005)
Entries after “also recorded” stand apart in the source; their conditions may differ.

Legend:
[1] = tested on: NMDA receptor / ERK phosphorylation; experiment: NMDAR mediated ERK phosphorylation in cultured cortical neurons (Western blot); format: cell-based
Description: […] SDS-PAGE was performed and western blotting used to detect ERK phosphorylation levels.
ERK phosphorylation in cultured cortical neurons (10-13 division) can be elicited by activation of NMDARs.

STEP61 = experiment: Knockdown of STEP protein by RNAi in cultured cortical neurons (Western blot); format: cell-based, rat
Description: Single stranded interfering RNA molecules (RNAi) were designed to be complementary to the sequence of STEP by standard means. The sequence used was 5′ AAACAUGCGAACAGUAUCAGU 3′. A standard scrambled RNA molecule of sequence 5′-CAG TCG CGT TTG CGA CTG G-3′ was used as a control. Dissociated cortical neurons were prepared from E18 rat embryos by standard protocols. The dissociated neurons were mixed with 90 ul of rat Nucleofector solution to give a final concentration of 4.8×10^6 cells/90 ul. The cells were mixed with 20 ug of RNAi and transferred to an electroporation cuvette. Using an AMAXA Nucleofector cells were electroporated using standard settings. Cells were transferred from the electroporation cuvette to poly-D-lysine coated 96 well plates for calcium flux assays or 6 well plates for Western blotting procedures and grown in standard neuronal media at 37° C. with 5% CO2 for 4 days.
Knockdown of endogenous STEP protein levels was visualized by Western blotting. Four days after electroporation cells were harvested and lysed with lysis buffer (150 mM NaCl, 50 mM Tris pH 7.6, 1% triton, in the presence of a protease inhibitor cocktail and 1 mM sodium orthovanadate) on ice. […] Levels of STEP protein were determined by Western blotting using anti-STEP antibodies (FIG. 6).

GABAA receptor b subunit = experiment: Surface expression of GABAA receptor b subunit in neurons (biotinylation, Western blot); format: cell-based; conditions: versus RNAi-Scrambled
Excerpt: (§1) Interfering RNA molecules were introduced into neurons by AMAXA nucleofection. To specifically knockdown STEP the oligo used had the sequence 5′-[…]-3′, a control siRNA that is predicted not to knock down levels of any gene products (sequence 5′-[…]-3′ was also used (Dharmacon, Lafayette, Colo.). Interfering RNA molecules were introduced into neurons using the AMAXA nucleofection technique (AMAXA, Gaithersburg, Md.) using the manufacturers protocol. Neurons were allowed to grow in culture for 3-4 days prior to experimental procedures.
(§2) Neurons were washed with ice cold PBS. Sulfo-NHS-LC-Biotin (Pierce Biotechnology, Rockford, Ill.) was dissolved at 1.5 mg/ml in ice cold PBS and incubated with the cells for 1 hour at […]. Excess biotin was washed off the cells with ice cold PBS and cells lysed and harvested as above. […] of protein lysate was incubated with 100 μl of neutravadin agarose slurry (Pierce Biotechnology) overnight at […]. The complexes were washed thoroughly and proteins eluted from the beads by resuspension in SDS loading buffer and boiling for 10 mins. Proteins were loaded on 8% Tris-gicine gels and separated by SDS-PAGE. Western blotting was performed by standard means using the indicated antibodies.

[2] = tested on: GluR1 subunit of AMPA receptors; experiment: Surface expression of AMPA receptor GluR1 subunit in neurons (biotinylation, Western blot); format: cell-based; conditions: versus RNAi-Scrambled
Excerpt: as §1, §2

EGF receptors = experiment: Surface expression of EGF receptors in neurons (biotinylation, Western blot); format: cell-based; conditions: versus RNAi-Scrambled
Excerpt: as §1, §2

NMDA receptors = experiment: NMDA mediated calcium influx in cultured cortical neurons after RNAi (FLEXstation); format: cell-based, rat; conditions: 1 μM NMDA, four days after transfection, versus scrambled RNA molecule
[3] = tested on: NMDA receptors (NR1, NR2A, NR2B); experiment: Surface expression of NMDA receptor subunits in neurons (biotinylation, Western blot); format: cell-based
Excerpt: as §1, §2

For N[C@H](CCCP(=O)(O)O)C(=O)O [D-APV, D-2-amino-5-phosphonopentanoic acid], the “NMDA stimulated ERK phosphorylation” value ([1]; D-APV 200 μM, stimulation with 100 μM NMDA for 5 minutes) was “blocked; also recorded: inhibits”.

“5′ AAACAUGCGAACAGUAUCAGU 3′ (guide AAACAUGCGAACAGUAUCAGU; siRNA; RNA, backbone and methylation of C not given here; single-stranded interfering RNA) [RNAi-STEP]” was tested, and the “levels of STEP61 protein” value (STEP61; cultured cortical neurons, four days after transfection, versus scrambled RNA molecule) was “lower levels of STEP61 protein”, the “STEP levels in the total protein lysate” value (STEP61; neurons, AMAXA nucleofection, relative to RNAi-Scrambled) was “knocked down” and the “surface levels of the GABAA receptor b subunit” value (GABAA receptor b subunit) was “unaffected”. The “surface levels of the GluR1 subunit of AMPA receptors” value [2] was “unaffected”, the “surface levels of EGF receptors” value (EGF receptors) was “unaffected” and the “Ca influx elicited by application of NMDA” value (NMDA receptors) was “increase in NMDA receptor mediated Ca influx”. The “Ca influx elicited by application of NMDA” value (NMDA receptors; listed as inhibitory RNA to STEP) was “larger NMDA response”, the “total levels of each subunit” value ([3]; RNAi-STEP or RNAi-Scrambled) was “the same” and the “levels of surface NR1” value ([3]; versus RNAi-Scrambled) was “increased”. For the same molecule, the “levels of surface NR2A” value ([3]; versus RNAi-Scrambled) was “increased” and the “levels of surface NR2B” value ([3]; versus RNAi-Scrambled) was “increased”.

For CN[C@H](CC(=O)O)C(=O)O [NMDA, N-methyl-D-aspartate], the ERK phosphorylation levels ([1]; 100 μM NMDA for 5 minutes, cultured cortical neurons (10-13 division)) was “significant ERK phosphorylation; also recorded: significantly increased”.
